A word on the IC50: it is the midpoint of a concentration-inhibition curve.

Molecules are shown by their SMILES.

The values that follow come from ChEMBL document CHEMBL1127105, “Adenosine-2-monophosphate derivatives: Structural requirements as substrates for inositol monophosphatase” (Bioorg Med Chem Lett, 1993).

Test [1] addresses T1, Inositol monophosphatase 1 (Bos taurus, UniProt P20456).
T1 sequence (P20456 whole entry): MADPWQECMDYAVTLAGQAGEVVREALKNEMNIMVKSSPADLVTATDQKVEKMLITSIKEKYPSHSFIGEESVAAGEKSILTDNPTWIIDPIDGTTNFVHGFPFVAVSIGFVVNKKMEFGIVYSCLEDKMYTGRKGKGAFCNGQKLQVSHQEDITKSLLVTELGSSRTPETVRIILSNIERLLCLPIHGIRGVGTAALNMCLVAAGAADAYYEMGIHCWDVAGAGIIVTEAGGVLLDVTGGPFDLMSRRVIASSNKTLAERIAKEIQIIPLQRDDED
The test can be described thus: Tested for the inhibitory activity against bovine inositol monophosphatase by measuring concentration inhibiting the production of [14C]inositol from racemic inositol monophosphate (1) containing [14C]-1.

Test [2] has as its target T2, Inositol monophosphatase 1 (Bos taurus) (UniProt P20456).
T2 sequence (whole entry): T1 sequence (P20456 whole entry)
The test can be described thus: Activity against the bovine inositol monophosphatase was determined by rate of release of inorganic phosphate at 1 mM substrate concentration, 1 mM of inositol-1-phosphate (1).

In test [1], `O=P(O)(O)[C@H]1CC[C@H](O)C[C@H]1O` gave an IC50 of 0.007 mM.
In turn, `O=P(O)(O)O[C@H]1CO[C@H](CO)[C@H]1O` returned an IC50 in test [1] of 2.9 mM. In test [2], this molecule gave an Activity of 0.65.
For `O=P(O)(O)O[C@H]1CC[C@@H](CO)[C@H]1O`, in that order: 0.31 mM and less than 0.05.
Regarding `O=P(O)(O)O[C@H]1CC[C@H](CO)[C@H]1O`, in test [1], it took 2.1 mM to reach half-maximal inhibition (IC50). In test [2], the Activity was less than 0.05.
Turning to `O=P(O)(O)O[C@H]1COC[C@H]1O`, in test [1], the IC50 turned out to be 3.6 mM. In test [2], the Activity was determined as 0.53.
Molecule `Nc1ncnc2c1ncn2[C@@H]1O[C@H](CO)[C@@H](O)[C@H]1OP(=O)(O)O` returned an IC50 in test [1] of 1.3 mM. This molecule also showed an Activity in test [2] of 0.48.
For `O=P(O)(O)O[C@@H]1CO[C@@H](CO)[C@@H]1O`, half-maximal inhibition in test [1] (IC50) required 1.8 mM. For the same molecule, in test [2], the Activity turned out to be 0.53.
In test [1], `O=P(O)(O)O[C@H]1CCC[C@H]1O` had a concentration for half-maximal inhibition (IC50) of 5 mM.
